Source: PubChem BioAssay AID1500 (NMMLSC, 2009)
The source made the active and inactive calls.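 Rule for the calls: active = compounds cutting labeled signal peptide binding to staph cells by half or more; inactive = the rest.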

Test system: S. aureus cells, FITC-AIP binding, flow cytometry
Experiment: inhibitors of FITC-AIP binding to S. aureus, late-stage follow-up, mechanism study for S. aureus quorum sensing inhibitors, strains RN6390, NM300, flow cytometry (AID 1500)
Conditions: stronger effect = higher value

CC1CCCN(C(C(=O)Nc2ccc3c(c2)OCCO3)c2ccccc2)C1 (stereo unspecified)
inhibition (at 12 µM): 26% (inactive)

CC1CCCN(C(C(=O)Nc2ccc3c(c2)OCO3)c2ccccc2)C1 (stereo unspecified)
inhibition (at 12 µM): 20% (inactive)

Cc1c(Cl)cccc1Nc1ccccc1C(=O)O
inhibition (at 30 µM): 67% | inhibition (strain RN6390, at 30 µM): 60%

CCc1oc2ccccc2c1C(=O)c1cc(Br)c(O)c(Br)c1
inhibition (at 6 µM): 65% | inhibition (strain RN6390, at 6 µM): 69%
